Results on four compounds are retold here after paper PMC12881681 (Molecular Pharmacology, 2025).

Where two headings read alike, the source gives them in different places.

Usually AUC(0-inf) stands for total exposure, with the tail of the curve extrapolated. In general, Cmax refers to the maximum level reached in the sampled fluid or tissue. By Tmax is commonly meant the time from dosing to the highest level.

Data set [1] concerns the target T1, human liver cytosolic AOX1 (Homo sapiens, UniProt Q06278).
T1 sequence (Q06278 1-1338): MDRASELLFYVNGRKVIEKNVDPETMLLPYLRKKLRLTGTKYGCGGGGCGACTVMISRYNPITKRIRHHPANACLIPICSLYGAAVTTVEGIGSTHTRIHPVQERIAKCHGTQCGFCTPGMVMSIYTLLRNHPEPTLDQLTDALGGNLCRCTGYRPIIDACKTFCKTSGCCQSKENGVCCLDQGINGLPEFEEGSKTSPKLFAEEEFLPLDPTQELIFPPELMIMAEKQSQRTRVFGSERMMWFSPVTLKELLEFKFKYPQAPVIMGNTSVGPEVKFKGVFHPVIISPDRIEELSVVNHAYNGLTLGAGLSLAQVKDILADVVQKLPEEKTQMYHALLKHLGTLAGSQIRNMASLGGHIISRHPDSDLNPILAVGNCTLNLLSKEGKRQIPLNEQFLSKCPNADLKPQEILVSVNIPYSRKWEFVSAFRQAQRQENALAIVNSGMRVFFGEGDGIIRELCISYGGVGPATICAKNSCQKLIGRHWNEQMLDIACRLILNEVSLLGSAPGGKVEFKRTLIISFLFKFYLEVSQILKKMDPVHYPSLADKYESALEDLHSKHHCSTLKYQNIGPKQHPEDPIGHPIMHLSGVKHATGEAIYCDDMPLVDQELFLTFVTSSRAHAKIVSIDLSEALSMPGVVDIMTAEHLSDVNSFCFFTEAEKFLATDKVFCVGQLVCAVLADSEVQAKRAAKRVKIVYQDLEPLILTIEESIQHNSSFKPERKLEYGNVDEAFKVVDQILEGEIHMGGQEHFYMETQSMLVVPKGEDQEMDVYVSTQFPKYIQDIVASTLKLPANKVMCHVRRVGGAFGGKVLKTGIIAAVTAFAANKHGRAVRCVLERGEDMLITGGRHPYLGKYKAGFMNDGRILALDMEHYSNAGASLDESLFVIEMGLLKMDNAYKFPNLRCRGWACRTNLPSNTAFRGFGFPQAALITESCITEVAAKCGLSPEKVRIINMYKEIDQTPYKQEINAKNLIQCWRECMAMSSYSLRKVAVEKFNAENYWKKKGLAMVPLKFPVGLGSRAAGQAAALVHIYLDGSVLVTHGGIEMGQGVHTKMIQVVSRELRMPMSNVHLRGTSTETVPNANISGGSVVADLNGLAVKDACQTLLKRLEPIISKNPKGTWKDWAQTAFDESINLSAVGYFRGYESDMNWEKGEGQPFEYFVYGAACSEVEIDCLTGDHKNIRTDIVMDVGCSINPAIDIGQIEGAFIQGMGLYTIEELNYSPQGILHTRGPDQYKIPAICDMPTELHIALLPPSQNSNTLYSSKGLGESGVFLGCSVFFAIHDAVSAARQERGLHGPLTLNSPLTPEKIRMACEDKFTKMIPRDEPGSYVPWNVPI
Briefly: Enzyme inactivation of human liver cytosolic AOX1-mediated carbazeran 4-oxidation. Here is the method: Carbazeran 4-oxidation and O^6-benzylguanine 8-oxidation were deployed as AOX1-selective catalytic markers.[27] The assay conditions (amount of cytosolic protein, incubation time, and substrate concentration) for carbazeran 4-oxidation catalyzed by human recombinant AOX1 and human/rat/mouse liver cytosols were optimized previously.[7]^,[25]
Enzymatic reaction was initiated by adding human liver cytosol (100 μg). After the specified preincubation duration, an aliquot (10 μL) of the preincubation mixture was transferred to 190 μL of a prewarmed (for 3 minutes at 37 °C) secondary incubation mixture (total volume of 200 μL) containing potassium phosphate buffer and carbazeran (15 μM) or O^6-benzylguanine (150 μM), which yielded a 20-fold dilution of the primary incubation mixture. The secondary incubation mixture was incubated for 5 minutes at 37 °C before the enzymatic reaction was terminated with 200 μL of ice-cold acetonitrile containing carbazeran-d4 (2.5 nM final concentration; internal standard for 4-oxo-carbazeran) or tolbutamide (25 nM final concentration; internal standard for 8-oxo-O^6-benzylguanine). Each sample was immediately mixed by vortex, placed on ice, centrifuged at 16,000g for 15 minutes at 4 °C and stored at –30 °C until ultra-high performance liquid chromatography–tandem mass spectrometry (UPLC-MS/MS) analysis. For enzyme inactivation assays involving rat and mouse liver cytosol and recombinant AOX1 assays, the experimental conditions were similar to those of human liver cytosol, except that the amount of cytosolic protein was 200 μg (rat) and 150 μg (mouse), respectively, and the incubation time of the secondary incubation mixture was 60 minutes. For the recombinant AOX1 enzyme assay, the amount of enzyme was 100 μg, the incubation time of the secondary incubation mixture was 15 minutes, and the total volume of the primary and secondary incubation mixtures was reduced to 100 μL.
Preliminary experiments were performed to optimize the incubation time and concentration of an inactivator to ensure a log-linear decrease in enzyme activity over time and that the kobs versus inactivator concentration plot reaches a plateau for the determination of the kinact value. The observed first-order rate constant for inactivation (kobs), maximal inactivation rate constant (kinact), half-maximal inactivation concentration (KI), and the time required for half of the enzyme molecules to be inactivated (t1/2) were calculated as described in our previous publication.[28]

Data set [2] addresses T1, human liver cytosolic AOX1. Briefly: Partition ratio determination (titration, human liver cytosol). The format is biochemical. Also on record: Enzymatic reaction was initiated by adding human liver cytosol (100 μg); tissue Corning, Inc. (Gentest brand) 452115; host or cells: human liver cytosol, pool of 150 donors. The method, then:
The enzyme kinetic experiments were conducted as described above. The incubation was allowed to proceed until saturation of enzyme has been reached (6 or 18 minutes, as specified in each figure legend). Carbazeran 4-oxidation was plotted against the ratio of inactivator concentration to AOX1 protein concentration in the incubation mixture of 200 μL. The specific lot of human liver cytosol (#38292) used in this study contained 1.05 ± 0.01 pmol/μL (mean ± SD) of AOX1 protein, as assessed by capillary nanoproteomic immunoassay.[27] The turnover number was the extrapolation of the intercept of the 2 linear regression lines to the x-axis, which was determined by solving the 2 linear regression equations. The partition ratio was calculated by subtracting the turnover number by 1, assuming 1:1 stoichiometry between the inactivator and the enzyme.[29]

Data set [3] has as its target T1, human liver cytosolic AOX1. The format is biochemical. The settings on record: potassium ferricyanide 2 mM, 0 or 6 min preincubation. Further details: Enzymatic reaction was initiated by adding human liver cytosol (100 μg); tissue Corning, Inc. (Gentest brand) 452115; host or cells: human liver cytosol, pool of 150 donors. Here is the method:
The residual AOX1 enzyme activity was determined by the carbazeran 4-oxidation assay.
A test chemical at a concentration described above was incubated with human liver cytosol (100 μg protein) at 37 °C for 0 or 6 minutes. […] After 10-minute incubation, an aliquot (50 μL) of the […] (total volume of 200 μL) containing potassium phosphate buffer and carbazeran (15 μM), which yielded a 4-fold dilution of the secondary incubation mixture. The residual AOX1 enzyme activity was determined as described above.

The target in data set [4] is T1, human liver cytosolic AOX1. Description: Effects of a competing AOX1 substrate and a competitive AOX1 inhibitor on AOX1 inactivation. Also on record: Enzymatic reaction was initiated by adding human liver cytosol (100 μg); tissue Corning, Inc. (Gentest brand) 452115; host or cells: human liver cytosol, pool of 150 donors. The format is biochemical. To be noted: 120 and 240 μM, human liver cytosol (data not shown). Here is the method: The molar ratio of O^6-benzylguanine (120, 240, and 480 μM) to 3-vinylerlotinib (10 μM) was 12, 24, and 48, O^6-benzylguanine to 4′-methylerlotinib (3 μM) was 40, 80, and 160, and O^6-benzylguanine to 2-methylerlotinib (1 μM) was 120, 240, and 480, respectively. […] Each standard incubation mixture was subjected to the same procedures as described in Enzyme Inactivation Experiments. The residual AOX1 enzyme activity was determined by the carbazeran 4-oxidation or O^6-benzylguanine 8-oxidation assay.

Data set [5] in a line: Pharmacokinetics study in mice: erlotinib pretreatment, carbazeran and 4-oxo-carbazeran. The format is in vivo, BALB/c mice. To be noted: for AUC(0-inf) / Cmax / Tmax / AUC0-∞: blood; for AUC(0-inf) / Cmax / CL/F / MRT inf / Tmax / AUC0-∞ / MRT0-∞: carbazeran 10 mg/kg p.o.; for CL/F: read-out: Apparent oral clearance (CL/F) (converted); for MRT inf: read-out: MRT0-∞. Here is the method: BALB/c mice (male, ∼8 weeks old) were purchased and housed at the Biological Resource Centre, Agency for Science, Technology and Research (A∗STAR). The experimental protocol was approved by the A∗STAR Institutional Review Board. […] Blood (12.5 μL) was drawn from the tail vein (with a needle prick) at various times (0.25, 0.5, 0.75, 1, 2, 3, 4, 6, and 8 hours) after carbazeran dosing. The blood samples were diluted 2 times with 12.5 μL of water. Acetonitrile containing the internal standard (carbazeran-d4, 4 nM in 75 μL acetonitrile and 3 nM in final sample volume of 100 μL) was added to the blood samples to precipitate proteins. […] Blank and standard calibration samples were prepared from control mice that were not treated with any chemicals. Pharmacokinetic data were analyzed by noncompartmental analysis using Phoenix WinNonlin 6.3 (Certara).
At the end of the last blood collection (8 hour post-carbazeran dosing), the mice were sacrificed. […] The tissue samples were homogenized, and a 12.5 μL aliquot of the homogenate was diluted with an equal volume of water. Acetonitrile containing the internal standard (carbazeran-d4, 4 nM in 75 μL acetonitrile and 3 nM in final sample volume of 100 μL) was added to the diluted tissue samples (25 μL) to precipitate the proteins.

Setting [6] is: human liver cytosol, carbazeran 4-oxidation.
Setting [7] is: male, BALB/c, mouse, whole blood, po, 10 mg/kg, Control (vehicle pretreatment).
Where [8] appears, read: male, BALB/c, mouse, whole blood, po, 10 mg/kg, erlotinib 100 mg/kg p.o. 2 h before.
[9] abbreviates: erlotinib 100 mg/kg p.o. 2 h before.

As to `CCc1cccc(Nc2ncnc3cc(OCCOC)c(OCCOC)cc23)c1` [Tetrahydroerlotinib, tetrahydroerlotinib], in data set [1] (half-maximal inactivation concentration, human liver cytosol, carbazeran 4-oxidation), the KI entry is “No inactivation”. Further, in data set [1] (human liver cytosol 100 μg, carbazeran 15 μM, 37 °C), the kinact result is listed as “No inactivation”. For the same compound, the “decrease in carbazeran 4-oxidation” value in data set [1] (human liver cytosol, 10 μM (raloxifene 0.02 μM), 30-minute preincubation) is “did not decrease”. The “decrease in carbazeran 4-oxidation” value in data set [1] (human liver cytosol, 50 μM, 120 minutes preincubation) is recorded as “did not decrease”. In addition, in data set [1] (setting [6]), the “Inactivation t1/2” value is listed as “No inactivation” and the kinact/KI entry is listed as “No inactivation”. For the same compound, the “KI,u” value in data set [1] (unbound, KI,u = fu × KI, fu at 10 μM in human liver cytosol) is on record as “No inactivation”. Further, in data set [2] (human liver cytosol), the “Turnover Number” value is recorded as “No inactivation”. Also, the “Partition Ratio” value in data set [2] (turnover number minus 1) is listed as “No inactivation”. In data set [3], the “effect of coincubation or postincubation with potassium ferricyanide on AOX1 inactivation” value is “not changed”.

As to `Nc1nc(OCc2ccccc2)c2nc[nH]c2n1` [O^6-benzylguanine], the “effect of O^6-benzylguanine alone on carbazeran 4-oxidation” value in data set [4] is given as “did not affect the activity”.

As for `CCNC(=O)OC1CCN(c2nncc3cc(OC)c(OC)cc23)CC1` [Carbazeran, carbazeran], in data set [5] (setting [7]), the AUC(0-inf) turned out to be 2.52 ± 0.46 µM·h, the Cmax was 3470 ± 1390 nM, the CL/F was 188 mL/min/kg and the MRT inf turned out to be 79.2 ± 26.4 min. In data set [5] (setting [8]), the AUC(0-inf) worked out at 4.6 ± 2.02 µM·h, the Cmax was 3530 ± 2180 nM, the CL/F is 114 mL/min/kg and the MRT inf was 139 ± 45.6 min. Besides, the Tmax in data set [5] (male, BALB/c, mouse, whole blood, po, Control (vehicle pretreatment), read-out: Tmax) was 17.4 ± 5.4 min.

On to `CCNC(=O)OC1CCN(c2n[nH]c(=O)c3cc(OC)c(OC)cc23)CC1` [4-Oxo-Carbazeran, 4-oxo-carbazeran], for which, in data set [5] (Control (vehicle pretreatment)), the “Ratio of AUC0-∞ (metabolite) to AUC0-∞ (parent)” value (from here on “Ratio of AUC0-∞ (metabolite)”) came out at 0.31 ± 0.06, the “AUC0-∞” value was 0.78 ± 0.23 µM·h, the Cmax worked out at 920 ± 390 nM and the Tmax came to 19.2 ± 7.2 min. In addition, in data set [5] (Control (vehicle pretreatment)), the “MRT0-∞” value is 0.98 ± 0.19 h. Moreover, in data set [5] (Control (vehicle pretreatment), listed as 4-oxo-carbazeran), the “Ratio of AUC0-∞ (metabolite)” value came out at 0.31. Also, in data set [5] (setting [9]), the “AUC0-∞” value is recorded as 0.027 ± 0.009∗∗∗∗ μM.h, the Cmax turned out to be 8 ± 3 nM, the Tmax was 27.6 ± 16.2 min and the “MRT0-∞” value is 8.98 ± 8.73∗ h. The “Ratio of AUC0-∞ (metabolite)” value in data set [5] (erlotinib 100 mg/kg p.o. 2 h before carbazeran) is 0.007 ± 0.003∗∗∗∗.
